# Test results as given in PMC11397358, “Cytotoxic Activity of Novel GnRH Analogs Conjugated with Mitoxantrone in Ovarian Cancer Cells” (Molecules, 2024).
# Tested on: SKOV-3 cells
# Assay: Annexin V / propidium iodide apoptosis assay by flow cytometry
# Assay type: cell-based, human
# Conditions: for Apoptotic Cells (%) Mean, Day2 / Apoptotic Cells (%) Mean, Day3 / Apoptotic Cells (%) Mean, Day4: 1 μM, Q1 and Q2, mean of three experiments, * p < 0.01 vs untreated; for Apoptotic Cells (%) Mean, Day2 / percentage of apoptotic cells (Q1, Q2 quadrants), day 2: 2 days; for Apoptotic Cells (%) Mean, Day3 / percentage of apoptotic cells (Q1, Q2 quadrants), day 3: 3 days; for Apoptotic Cells (%) Mean, Day4 / percentage of apoptotic cells (Q1, Q2 quadrants), day 4: 4 days; for percentage of apoptotic cells (Q1, Q2 quadrants), day 2 / percentage of apoptotic cells (Q1, Q2 quadrants), day 3 / percentage of apoptotic cells (Q1, Q2 quadrants), day 4: 1 μΜ, 37 °C, representative experiment (Figure 5)
# Source text: We next evaluate the abilities of Con-3 and Con-7 at concentrations of 1 μΜ to induce cell death by determining the percentages of live, apoptotic and necrotic cells after treatment of SKOV-3 cells with the GnRH conjugates. As shown in Figure 5 and Figures S1–S3 on day 2, the majority of SKOV-3 cells were viable (Q4 quadrant), treated either with Con-3, Con-7 or mitoxantrone, whereas the percentage of apoptotic cells (late or early apoptotic) (Q1, Q2 quadrants) was only 10.1%, 10.87% and 13.1% after treatment with Con-3, Con-7 or mitoxantrone, respectively. […] Cell viability further decreased on day 4 with a concomitant increase in apoptosis. Specifically, the percentage of apoptotic cells was 53.5%, 59.6% and 54.3% after treatment with Con-3, Con-7 or mitoxantrone (Figure 5 and Figures S7–S9). In all phases, the percentage of the necrotic and late apoptotic cells (Q3 quadrant) was very small.
# Figure 5 Determination of viability, apoptosis, or necrosis of SKOV-3 cells after their treatment with 1 μM Con-3, Con-7, or mitoxantrone for 2, 3, and 4 days at 37 °C. At the end of the incubation the cells were further incubated in binding buffer supplied by Biotium, (CF488A Apoptosis Detection kit) and analyzed on a flow cytometer (excitation 488 nm), in the FITC channel (filter 530 nm) for detection of the Annexin V-positive cellsand in the propidium iodide, or PI, channel (filter 616 nm) for detection of the PI-positive cells. The figures are from a representative experiment performed three times with similar results. A higher resolution of the images in Figure 5 is provided in the Supplementary Material (Figures S1–S9). TEXT PRINTED IN THE PICTURE: Con-3: Q3: 4,19 (Day 2); Q2: 7,12 (Day 2); Q4: 85,7 (Day 2); Q1: 2,98 (Day 2); Q3: 5,31 (Day3); Q2: 19,5 (Day3); Q4: 58,0 (Day3); Q1: 17,1 (Day3); Q3: 3,54 (Day4); Q2: 17,1 (Day4); Q4: 43,0 (Day4); Q1: 36,4 (Day4) | Con-7: Q3: 6,31 (Day 2); Q2: 7,74 (Day 2); Q4: 82,8 (Day 2); Q1: 3,13 (Day 2); Q3: 8,11 (Day3); Q2: 19,8 (Day3); Q4: 56,8 (Day3); Q1: 15,3 (Day3); Q3: 3,48 (Day4); Q2: 19,7 (Day4); Q4: 36,9 (Day4); Q1: 39,9 (Day4) | Mitoxantrone: Q3: 6,49 (Day 2); Q2: 9,40 (Day 2); Q4: 80,4 (Day 2); Q1: 3,67 (Day 2); Q3: 7,13 (Day3); Q2: 18,9 (Day3); Q4: 61,0 (Day3); Q1: 13,1 (Day3); Q3: 2,72 (Day4); Q2: 17,3 (Day4); Q4: 43,0 (Decimal sign as read) (Day4); Q1: 37,0 (Day4) DOUBTS OF THE COPYIST ABOUT THIS PICTURE: All quadrant values: the print is very small, and the decimal sign may be a comma or a point in every value / Con-3, Day 2, Q4: 85,7 or 86,7 / Con-3, Day 2, Q1: 2,98 or 2,96 / Con-3, Day3, Q3: 5,31 or 6,31 / Con-3, Day3, Q2: 19,5 or 19,6 / Con-3, Day3, Q4: 58,0 or 56,0 / Con-3, Day4, Q3: 3,54 or 3,64 / Con-3, Day4, Q1: 36,4 or 38,4 / Con-7, Day 2, Q3: 6,31 or 8,31 / Con-7, Day 2, Q4: 82,8 or 82,6 / Con-7, Day 2, Q1: 3,13 or 3,15 / Con-7, Day3, Q3: 8,11 or 6,11 / Con-7, Day3, Q2: 19,8 or 19,6 / Con-7, Day3, Q4: 56,8 or 58,8 / Con-7, Day3, Q1: 15,3 or 15,8 / Con-7, Day4, Q3: 3,48 or 3,46 / Con-7, Day4, Q4: 36,9 or 38,9 / Con-7, Day4, Q1: 39,9 or 38,9 / Mitoxantrone, Day 2, Q3: 6,49 or 8,49 / Mitoxantrone, Day 2, Q2: 9,40 or 8,40 / Mitoxantrone, Day 2, Q4: 80,4 or 60,4 / Mitoxantrone, Day 2, Q1: 3,67 or 3,87 / Mitoxantrone, Day3, Q2: 18,9 or 16,9 / Mitoxantrone, Day3, Q4: 61,0 or 81,0 / Mitoxantrone, Day3, Q1: 13,1 or 15,1 […]
# SKOV-3 cells were seeded into 12-well plates at a density of 50,000 cells/well and incubated overnight in DMEM/F12 (1:1) containing 3.15 g/L glucose and 10% BCS, at 37 °C and 5% CO2. At the end of the incubation, the culture medium was replaced with a fresh one containing 3.15 g/L glucose and 2% BCS, with or without GnRH analogs or mitoxantrone at a concentration of 1 μΜ, and the cells were further incubated at 37 °C and 5% CO2 for 2, 3 and 4 days. […]
Structure (SMILES),"Apoptotic Cells (%) Mean, Day2","Apoptotic Cells (%) Mean, Day3","Apoptotic Cells (%) Mean, Day4","percentage of apoptotic cells (Q1, Q2 quadrants), day 2 [%]","percentage of apoptotic cells (Q1, Q2 quadrants), day 3 [%]","percentage of apoptotic cells (Q1, Q2 quadrants), day 4 [%]"
CCNC(=O)[C@@H]1CCCN1C(=O)[C@H](CCCNC(=N)N)NC(=O)[C@H](CC(C)C)NC(=O)[C@@H](CSSCCC(=O)OCCNCCNc1ccc(NCCNCCO)c2c1C(=O)c1c(O)ccc(O)c1C2=O)NC(=O)[C@H](Cc1ccc(O)cc1)NC(=O)[C@H](CO)NC(=O)[C@H](Cc1c[nH]c2ccccc12)NC(=O)[C@H](Cc1c[nH]cn1)NC(=O)[C@@H]1CCC(=O)N1 [Con-3],13.68 * %,35.00 * %,49.50 * %,10.1,36.6,53.5
CCNC(=O)[C@@H]1CCCN1C(=O)[C@H](CCCNC(=N)N)NC(=O)[C@H](CC(C)C)NC(=O)[C@@H](CCCCNC(=O)CCCCCNC(=O)CCSSCC(=O)OCCNCCNc1ccc(NCCNCCO)c2c1C(=O)c1c(O)ccc(O)c1C2=O)NC(=O)[C@H](Cc1ccc(O)cc1)NC(=O)[C@H](CO)NC(=O)[C@H](Cc1c[nH]c2ccccc12)NC(=O)[C@H](Cc1c[nH]cn1)NC(=O)[C@@H]1CCC(=O)N1 [Con-7],13.81 * %,33.53 * %,51.17 * %,10.87,35.1,59.6
O=C1c2c(O)ccc(O)c2C(=O)c2c(NCCNCCO)ccc(NCCNCCO)c21 [mitoxantrone],14.26 * %,33.60 * %,50.10 * %,13.1,32,54.3
